Test [1] addresses T1, CHOK1 cells engineered to overexpress human CCR2 (Homo sapiens, UniProt P41597).
T1 construct: expressed in transfected cells; host or cells: CHOK1
As to the kind of experiment: Antibody Dependent Cellular Cytotoxicity (ADCC) Reporter Assay. The format is cell-based. The conditions noted are these: with anti-cotinine antibody (human IgG1 Fc, S239D/I332E); Jurkat FcγRIIIa NFAT-luciferase reporter cells; average if several runs; read-out: ADCC Reporter Assay pEC50 (converted). The protocol:
An antibody dependent cellular cytoxocity reporter assay was conducted using the following four assay components: (i) ARM compound of Formula (I) targeting CCR2 (concentrations ranging from 1 pM to 10 μM) (ii) anti-cotinine antibody having a heavy chain sequence of SEQ ID NO: 11 and a light chain sequence of SEQ ID NO: 12 (rabbit variable region with human IgG1 Fc domain containing a DE mutation (S239D/I332E)) (concentrations ranging from 0.01 μg/mL to 200 μg/mL); (iii) target cells: CHOK1 cells engineered to overexpress either human CCR2 (typically 1000-20,000 cells per well) and (iv) reporter cells: Jurkat cells engineered to express FcγRIIIa with the reporter gene luciferase under the control of the NFAT promoter (typically 3000-75,000 cells per well). Reagents were combined in a final volume of 20 μL in a 384-well tissue culture treated plate. All four assay components were incubated together for about 12-18 hours. Thereafter, BioGlo Detection reagent (Promega) was added to the wells to lyse the cells and provide a substrate for the luciferase reporter protein. Luminescence signal was measured on a microplate reader and signal:background was calculated by dividing the signal of a test well by the signal obtained when no heterobivalent compound of Formula (I) was added. EC50 calculations were done using Graphpad Prism Software, specifically a nonlinear regression curve fit (Y=Bottom+(Top−Bottom)/(1+10 ^((Log EC50−X)*HillSlope))).
ARMs compounds of Formula (I) of the invention were tested for ADCC activity in the above assay in or more experimental runs and the results are shown in Table 3 below. Potency of the compounds of Formula (I) of the invention is reported as a pEC50 value. The pEC50 value is the negative log of the EC50 value, wherein the EC50 value is the half maximal effective concentration measured in molar (M). For compounds tested in more than one experimental run, the pEC50 value is reported as an average.

For test [2], the target named is human alpha1 nicotinic acetylcholine (nACh) receptor (Homo sapiens, UniProt P02708+Q07001). As to the kind of experiment: Nicotinic Acetylcholine Receptor Antagonism Assay (IONFlux automated patch clamp). In kind it is cell-based. The conditions noted are these: for IC50: antagonism of nAChR stimulated with acetylcholine, average if several runs; for Emax at 100 µM: maximum percentage antagonism at Maximum Concentration of Compound Tested 100 μM, read-out: Maximum Response (%). The protocol:
Cells expressing human alpha1 nicotinic acetylcholine (nACh) receptor (nAChR) were washed and dissociated using Trypsin containing buffer. Cells were then washed and seeded at a density of 3-5 million cells/mL and allowed to grow for 3 days. Then, 60-80 μL of cells were added to plates and incubated with dose response of an ARM compound of Formula (I) with a top concentration of either 10 μM or 100 μM. The receptor was then stimulated via addition of acetylcholine (ACh) and activation of the receptor was monitored via the IONFlux automated patch clamp system. IonFlux Data Analyzer software was utilized to perform leak subtraction and measure (min) peak current amplitude.
Data processing: (1) Current values recorded for vehicle only applications in individual traps/patterns were subtracted from corresponding current amplitude values for control, test article and control+test article. (2) Control response was calculated as % of the average response of the 3rd out of total 3 ACh (10 mM) applications alone. In rare situations, if the 3rd ACh response was obscured due to technical artifacts, the 2nd and/or 1st ACh (10 mM) application was considered as control. The peak current amplitude generated in the presence of each test article concentration was then used to calculate the % inhibition as compared to control response (10 mM ACh alone). These estimates were further corrected for vehicle response and run down corrected by normalizing with time matched control responses (10 mM ACh alone). The corrected percentages were then fit with a non-linear function in GraphPad Prism 6 (or later versions) to determine the IC50.
Exclusion criteria: (i) any n's with poor recording quality, (ii) control current amplitude <500 pA or (iii) significant outliers, as determined by the Grubbs' test.
ARMs compounds of Formula (I) of the invention were tested for antagonism of the nAChR in the above assay in […] experimental runs and the results are shown in Table 6 below. Antagonistic activity of the compounds of Formula (I) of the invention is reported as an IC50 value (half maximal inhibitory concentration) and the maximum percentage antagonism observed at the highest concentration of compound of Formula (I) tested, as indicated in Table 6. For compounds tested in more than one experimental run, the IC50 value is reported as an average.
On the technique in general: The patch-clamp technique gives a direct electrical read-out from membranes.

A word on the IC50: it is the point on the concentration scale where inhibition reaches its midpoint. Read a low IC50 as higher potency.

Where a name gives a salt, the structure may show the parent alone. Where only a bound is given, the exact number is not on record here.

human alpha1 nicotinic acetylcholine (nACh) receptor, sequence (P02708 21-457): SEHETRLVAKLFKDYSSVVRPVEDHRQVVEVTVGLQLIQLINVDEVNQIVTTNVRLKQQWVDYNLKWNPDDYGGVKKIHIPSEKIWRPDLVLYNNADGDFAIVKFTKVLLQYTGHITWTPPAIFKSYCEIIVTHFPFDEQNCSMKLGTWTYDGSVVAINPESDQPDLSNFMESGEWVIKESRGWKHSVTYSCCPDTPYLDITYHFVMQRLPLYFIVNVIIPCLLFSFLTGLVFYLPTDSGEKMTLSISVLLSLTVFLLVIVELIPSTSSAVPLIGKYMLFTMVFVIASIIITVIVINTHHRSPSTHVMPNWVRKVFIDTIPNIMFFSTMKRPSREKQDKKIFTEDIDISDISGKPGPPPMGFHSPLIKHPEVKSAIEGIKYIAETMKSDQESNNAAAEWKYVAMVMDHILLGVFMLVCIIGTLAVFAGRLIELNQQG
human alpha1 nicotinic acetylcholine (nACh) receptor, sequence (P11230 24-501 partner): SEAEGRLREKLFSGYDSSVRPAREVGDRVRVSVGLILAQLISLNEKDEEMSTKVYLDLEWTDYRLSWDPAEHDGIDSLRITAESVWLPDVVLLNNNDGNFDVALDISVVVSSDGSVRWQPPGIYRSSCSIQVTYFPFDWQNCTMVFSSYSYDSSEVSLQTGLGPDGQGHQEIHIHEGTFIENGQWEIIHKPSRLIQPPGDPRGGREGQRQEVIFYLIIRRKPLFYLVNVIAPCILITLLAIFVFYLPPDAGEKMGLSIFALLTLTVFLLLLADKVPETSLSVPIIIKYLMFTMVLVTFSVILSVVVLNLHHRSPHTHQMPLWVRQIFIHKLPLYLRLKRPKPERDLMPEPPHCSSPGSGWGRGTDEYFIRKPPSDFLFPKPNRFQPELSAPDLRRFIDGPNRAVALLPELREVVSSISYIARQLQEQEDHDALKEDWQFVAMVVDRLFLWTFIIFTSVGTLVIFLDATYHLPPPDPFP
human alpha1 nicotinic acetylcholine (nACh) receptor, sequence (Q07001 22-517): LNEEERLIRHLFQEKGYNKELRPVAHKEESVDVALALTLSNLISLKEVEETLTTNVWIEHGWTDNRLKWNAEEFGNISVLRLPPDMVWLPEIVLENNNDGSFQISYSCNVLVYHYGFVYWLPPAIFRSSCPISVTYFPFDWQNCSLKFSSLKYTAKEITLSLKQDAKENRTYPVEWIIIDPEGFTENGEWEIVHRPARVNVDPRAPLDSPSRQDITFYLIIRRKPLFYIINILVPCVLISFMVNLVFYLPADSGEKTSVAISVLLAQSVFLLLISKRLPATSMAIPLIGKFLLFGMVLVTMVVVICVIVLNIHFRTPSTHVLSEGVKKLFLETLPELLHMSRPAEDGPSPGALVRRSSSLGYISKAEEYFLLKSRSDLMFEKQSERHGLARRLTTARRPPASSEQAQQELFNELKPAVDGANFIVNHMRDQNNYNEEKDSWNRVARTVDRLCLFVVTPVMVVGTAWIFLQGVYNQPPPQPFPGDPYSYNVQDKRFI

Regarding `CO[C@@H]1COCC[C@@H]1N[C@@H]1CC[C@](CCCNC(=O)CCOCCOCCOCCOCCOCCOCCOCCOCCOCCOCCOCCOCCNC(=O)[C@H]2CC(=O)N(C)[C@@H]2c2cccnc2)(C(=O)N2CCc3ncc(C(F)(F)F)cc3C2)C1` [Example 1, (2S,3S)—N-(43-((1S,3R)-3-(((3S,4S)-3-methoxytetrahydro-2H-pyran-4-yl)amino)-1-(3-(trifluoromethyl)-5,6,7,8-tetrahydro-1,6-naphthyridine-6-carbonyl)cyclopentyl)-39-oxo-3,6,9,12,15,18,21,24,27,30,33,36-dodecaoxa-40-azatritetracontyl)-1-methyl-5-oxo-2-(pyridin-3-yl)pyrrolidine-3-carboxamide], the EC50 in test [1] was 2.51 nM. Moreover, in test [2], the IC50 was over 100000 nM and the Emax at 100 µM came to 29%.

Turning to `CO[C@@H]1COCC[C@@H]1N[C@@H]1CC[C@](CCCNC(=O)[C@H]2CC[C@@H](NC(=O)CCCO[C@H]3CC[C@@H](OCCNC(=O)[C@H]4CC(=O)N(C)[C@@H]4c4cccnc4)CC3)CC2)(C(=O)N2CCc3ncc(C(F)(F)F)cc3C2)C1` [Example 4, (2S,3S)-N-(2-(((1S,4R)-4-(4-(((1R,4S)-4-((3-((1S,3R)-3-(((3S,4S)-3-Methoxytetrahydro-2H-pyran-4-yl)amino)-1-(3-(trifluoromethyl)-5,6,7,8-tetrahydro-1,6-naphthyridine-6-carbonyl)cyclopentyl)propyl)carbamoyl)cyclohexyl)amino)-4-oxobutoxy)cyclohexyl)oxy)ethyl)-1-methyl-5-oxo-2-(pyridin-3-yl)pyrrolidine-3-carboxamide, Formic acid salt], the EC50 in test [1] is 0.794 nM. Moreover, the Emax at 100 µM in test [2] was determined as 48%.

As for `CO[C@@H]1COCC[C@@H]1N[C@@H]1CC[C@](COCCNC(=O)[C@H]2CC[C@H](NC(=O)CCCO[C@H]3CC[C@H](OCCNC(=O)[C@H]4CC(=O)N(C)[C@@H]4c4cccnc4)CC3)CC2)(C(=O)N2CCc3ncc(C(F)(F)F)cc3C2)C1` [Example 11, (2S,3S)-N-(2-(((1R,4S)-4-(4-(((1S,4R)-4-((2-(((1S,3R)-3-(((3S,4S)-3-Methoxytetrahydro-2H-pyran-4-yl)amino)-1-(3-(trifluoromethyl)-5,6,7,8-tetrahydro-1,6-naphthyridine-6-carbonyl)cyclopentyl)methoxy)ethyl)carbamoyl)cyclohexyl)amino)-4-oxobutoxy)cyclohexyl)oxy)ethyl)-1-methyl-5-oxo-2-(pyridin-3-yl)pyrrolidine-3-carboxamide], the EC50 in test [1] was 2.51 nM. Moreover, in test [2], the IC50 is over 100000 nM and the Emax at 100 µM was 39%.

With `CO[C@@H]1COCC[C@@H]1N[C@@H]1CC[C@](CCCNC(=O)[C@H]2CC[C@@H](NC(=O)CCOCCOCCOCCNC(=O)[C@H]3CC(=O)N(C)[C@@H]3c3cccnc3)CC2)(C(=O)N2CCc3ncc(C(F)(F)F)cc3C2)C1` [Example 17, (2S,3S)—N-(2-(2-(2-(3-(((1R,4s)-4-((3-((1S,3R)-3-(((3S,4S)-3-Methoxytetrahydro-2H-pyran-4-yl)amino)-1-(3-(trifluoromethyl)-5,6,7,8-tetrahydro-1,6-naphthyridine-6-carbonyl)cyclopentyl)propyl)carbamoyl)cyclohexyl)amino)-3-oxopropoxy)ethoxy)ethoxy)ethyl)-1-methyl-5-oxo-2-(pyridin-3-yl)pyrrolidine-3-carboxamide, Formic acid salt], the EC50 in test [1] is 6.31 nM. Also, in test [2], the IC50 is at least 100000 nM and the Emax at 100 µM turned out to be 21%.

Consider `CO[C@H]1COCC[C@H]1N[C@H]1CC[C@@](CCCNC(=O)[C@H]2CC[C@@H](NC(=O)CCOCCOCCNC(=O)CCNC(=O)[C@H]3CC(=O)N(C)[C@@H]3c3cccnc3)CC2)(C(=O)N2CCc3ncc(C(F)(F)F)cc3C2)C1` [Example 19, (2S,3S)—N-(3-((2-(2-(3-(((1s,4s)-4-((3-((1R,3S)-3-(((3R,4R)-3-Methoxytetrahydro-2H-pyran-4-yl)amino)-1-(3-(trifluoromethyl)-5,6,7,8-tetrahydro-1,6-naphthyridine-6-carbonyl)cyclopentyl)propyl)carbamoyl)cyclohexyl)amino)-3-oxopropoxy)ethoxy)ethyl)amino)-3-oxopropyl)-1-methyl-5-oxo-2-(pyridin-3-yl)pyrrolidine-3-carboxamide], for which the EC50 in test [1] was 3.16 nM. In test [2], the IC50 was over 100000 nM and the Emax at 100 µM was 8%.

Regarding `CO[C@@H]1COCC[C@@H]1N[C@@H]1CC[C@](CCCNC(=O)CCOCCOCCO[C@H]2CC[C@H](OCCNC(=O)[C@H]3CC(=O)N(C)[C@@H]3c3cccnc3)CC2)(C(=O)N2CCc3ncc(C(F)(F)F)cc3C2)C1` [Example 20, ((2S,3S)—N-(2-(((1r,4S)-4-(2-(2-(3-((3-((1S,3R)-3-(((3S,4S)-3-Methoxytetrahydro-2H-pyran-4-yl)amino)-1-(3-(trifluoromethyl)-5,6,7,8-tetrahydro-1,6-naphthyridine-6-carbonyl)cyclopentyl)propyl)amino)-3-oxopropoxy)ethoxy)ethoxy)cyclohexyl)oxy)ethyl)-1-methyl-5-oxo-2-(pyridin-3-yl)pyrrolidine-3-carboxamide, Formic acid salt], the EC50 in test [1] was 3.98 nM. In test [2], the Emax at 100 µM is 74%.

Source of the values: US20250154288A1, “CYTOTOXICITY TARGETING CHIMERAS FOR C-C CHEMOKINE RECEPTOR 2-EXPRESSING CELLS” (GLAXOSMITHKLINE INTELLECTUAL PROPERTY DEVELOPMENT LIMITED, priority 2022, published 2025).
